Results as given in patent US5853463A, “Marine antifouling agent” (Rohm and Haas Company, priority 1998, dated 1998).
≈ marks a conversion by molar mass, not a printed value. Read-outs that look alike come from different tables or passages of the source.

Assays:
Dunaliella parva = test: Activity against Dunaliella parva (minimum inhibitory concentration, twofold serial dilution); assay type: cell-based; settings: 168 h, read-out: MIC (Minimum Inhibitory Concentration)
Experimental: Tests were conducted to determine the toxicity of the marine antifouling agents of the present invention to Dunaliella. Dunaliella are indicative of soft fouling organisms.
The effectiveness of the marine antifouling agents of the present invention and 3-iodopropargyl N-butyl carbamate (Comparative) against Dunaliella parva were determined by a twofold serial dilution procedure which determined the Minimum Inhibitory Concentration ("MIC") of test compound required to inhibit the growth of an algal inoculum. […]
Cultures were grown in 50 mL of medium contained in 250 mL baffle flasks with silicone sponge closures (Bellco Glass, Vineland, N.J., #2004-00004, 28 mm), on a rotary shaker under constant cool white illumination. […] The culture was standardized to an absorbance of 0.1 at 490 nm by addition of fresh medium. […]
Solutions of test compound at 40x the highest concentration to be tested were prepared in an appropriate solvent. […] At the end of that time, the plates were examined for growth, as evidenced by easily visible green color, using a mirrored microplate reader.
Results were recorded as the median of the three replicate results and are reported below as the minimum concentration to inhibit growth (MIC).

Artemia = test: Toxicity to Artemia (LC100 of nauplii); assay type: in vivo, Artemia satlina; settings: 24 Hours, 25° C.
Experimental: Tests were conducted to determine the toxicity of the marine antifouling agents of the present invention to Artemia. Artemia are indicative of hard fouling organisms.
Substitute ocean water was prepared following ASTM Method D 1141-90. The water was sterilized by filtration through a 0.22 micron cellulose acetate membrane filter. San Francisco Bay Brand® (San Francisco Bay Brand, Inc., Newark, Calif.) Artemia satlina cysts were purchased from a local aquarium supply store. The cysts were hatched in a 250 mL Erlenmeyer flask. The Artemia cysts (0.2 g) were weighed into a sterilized flask. One hundred mL of sterile ASTM sea water was added to the flask. The flask was placed on an orbital shaker set at approximately 150 rotations per minute and 28° C. After 24 hours, the contents of the flask were poured into a separatory funnel. The egg shells were separated from the Artemia nauplii (larvae), as the shells floated to the top. The nauplii were returned to the flask for another 24 hours shaking. The inoculum was prepared by pouring the nauplii into a crystallizing dish 48 hours after the cysts were originally placed on the shaker. […] The number of nauplii in 3 to 4 wells was counted under a microscope. […]
Plates were read under a low magnification microscope 24 and 48 hours after the nauplii were added to the plate. […]

| Structure (SMILES) | MIC (Dunaliella parva; 23° C., one week incubation, median of three replicates) | Artemia LC100 (highest dilution in which all of the nauplii are dead) (Artemia) | MIC (Dunaliella parva) |
| --- | --- | --- | --- |
| CCCCNC(=O)OCC#CI [Comparative, 3-iodopropargyl N-butyl carbamate] | 6.2 µg/mL (≈ 22.1 µM) | 25 ppm |  |
| O=C(C(=O)c1ccccc1)c1ccccc1 [R=R^1 =H] |  | 12.5 ppm | 0.6 µg/mL (≈ 2.85 µM) |
